Reference: patent US9096518B2, “Substituted hydroxamic acids and uses thereof” (Millennium Pharmaceuticals, Inc., priority 2009, dated 2015)

target: T1, purified human HDAC6 (Homo sapiens, UniProt Q9UBN7); experiment: HDAC6 Enzyme Assay; assay type: biochemical
T1 construct: purchased BPS Bioscience 5006
T1 sequence (Q9UBN7 1-1215): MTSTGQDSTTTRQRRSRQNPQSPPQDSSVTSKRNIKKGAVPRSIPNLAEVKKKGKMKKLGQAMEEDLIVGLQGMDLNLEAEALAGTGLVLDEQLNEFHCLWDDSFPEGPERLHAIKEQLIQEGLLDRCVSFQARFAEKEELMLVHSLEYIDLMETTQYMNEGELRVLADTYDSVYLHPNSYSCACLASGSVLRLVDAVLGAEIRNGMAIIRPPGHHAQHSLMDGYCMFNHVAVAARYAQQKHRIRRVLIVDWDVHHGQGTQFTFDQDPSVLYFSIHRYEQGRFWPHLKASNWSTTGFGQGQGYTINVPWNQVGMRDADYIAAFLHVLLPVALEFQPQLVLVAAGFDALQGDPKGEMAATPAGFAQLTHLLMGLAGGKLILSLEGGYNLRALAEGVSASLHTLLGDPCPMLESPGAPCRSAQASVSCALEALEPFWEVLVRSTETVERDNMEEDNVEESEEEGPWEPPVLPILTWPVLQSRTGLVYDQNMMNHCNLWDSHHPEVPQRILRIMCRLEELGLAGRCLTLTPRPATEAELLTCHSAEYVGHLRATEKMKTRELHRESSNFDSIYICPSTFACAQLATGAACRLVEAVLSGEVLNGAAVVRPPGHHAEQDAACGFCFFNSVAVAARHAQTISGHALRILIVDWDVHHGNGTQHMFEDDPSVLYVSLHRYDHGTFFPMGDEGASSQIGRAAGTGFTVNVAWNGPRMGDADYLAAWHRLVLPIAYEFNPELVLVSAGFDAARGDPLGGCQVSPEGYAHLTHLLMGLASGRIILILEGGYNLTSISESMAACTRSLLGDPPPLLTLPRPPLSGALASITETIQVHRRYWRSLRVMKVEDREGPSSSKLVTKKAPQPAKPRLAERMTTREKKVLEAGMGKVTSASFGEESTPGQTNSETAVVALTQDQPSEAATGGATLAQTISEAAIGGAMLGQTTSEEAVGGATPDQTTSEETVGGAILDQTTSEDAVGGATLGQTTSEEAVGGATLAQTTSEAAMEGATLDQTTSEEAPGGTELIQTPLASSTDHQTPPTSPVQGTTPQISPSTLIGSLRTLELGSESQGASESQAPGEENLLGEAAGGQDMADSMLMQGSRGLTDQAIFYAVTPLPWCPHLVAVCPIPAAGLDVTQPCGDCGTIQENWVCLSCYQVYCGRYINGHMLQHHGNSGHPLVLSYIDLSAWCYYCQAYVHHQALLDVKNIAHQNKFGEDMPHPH
Method: To measure the inhibition of HDAC6 activity, purified human HDAC6 (BPS Bioscience; Cat. No. 5006) is incubated with substrate Ac-Arg-Gly-Lys(Ac)-AMC peptide (Bachem Biosciences; Cat. No. I-1925) for 1 hour at 30° C. in the presence of test compounds or vehicle DMSO control. The reaction is stopped with the HDAC inhibitor trichostatin A (Sigma; Cat. No. T8552) and the amount of Arg-Gly-Lys-AMC generated is quantitated by digestion with trypsin (Sigma; Cat. No. T1426) and subsequent measurement of the amount of AMC released using a fluorescent plate reader (Pherastar; BMG Technologies) set at Ex 340 nm and Em 460 nm. Concentration response curves are generated by calculating the fluorescence increase in test compound-treated samples relative to DMSO-treated controls, and enzyme inhibition (IC50) values are determined from those curves.

IC50 [nM]	Structure (SMILES)
100 to 500	O=C(NO)c1ccc2c(c1)CCN(Cc1ccc(-n3cccn3)cc1)C2 [Compound 68, N-hydroxy-2-[4-(1H-pyrazol-1-yl)benzyl]-1,2,3,4-tetrahydroisoquinoline-6-carboxamide]
100 to 500	O=C(NO)c1ccc2c(c1)CCN(Cc1cccc3nsnc13)C2 [Compound 69, 2-(2,1,3-benzothiadiazol-4-ylmethyl)-N-hydroxy-1,2,3,4-tetrahydroisoquinoline-6-carboxamide]
< 50	COc1ccccc1-c1nc(CN2CCc3cc(C(=O)NO)ccc3C2)no1 [Compound 72, N-hydroxy-2-{[5-(2-methoxyphenyl)-1,2,4-oxadiazol-3-yl]methyl}-1,2,3,4-tetrahydroisoquinoline-6-carboxamide]
50 to 100	O=C(NO)c1ccc2c(c1)CCN(CCC(=O)N1CCc3ccccc31)C2 [Compound 73, 2-[3-(2,3-dihydro-1H-indol-1-yl)-3-oxopropyl]-N-hydroxy-1,2,3,4-tetrahydroisoquinoline-6-carboxamide]
> 500	O=C(NO)c1ccc2c(c1)CCN(Cc1nccn1Cc1ccccc1)C2 [Compound 74, 2-[(1-benzyl-1H-imidazol-2-yl)methyl]-N-hydroxy-1,2,3,4-tetrahydroisoquinoline-6-carboxamide]
100 to 500	Cn1cccc1C(=O)N1CCCc2cc(C(=O)NO)ccc2C1 [Compound 83, N-hydroxy-2-[(1-methyl-1H-pyrrol-2-yl)carbonyl]-2,3,4,5-tetrahydro-1H-2-benzazepine-7-carboxamide]
100 to 500	Cn1cccc1C(=O)N1CCc2ccc(C(=O)NO)cc2CC1 [Compound 86, N-hydroxy-3-[(1-methyl-1H-pyrrol-2-yl)carbonyl]-2,3,4,5-tetrahydro-1H-3-benzazepine-7-carboxamide]
< 50	CC(C)(C(=O)N1CCc2ccc(C(=O)NO)cc2CC1)c1ccc(Cl)cc1 [Compound 88, 3-[2-(4-chlorophenyl)-2-methylpropanoyl]-N-hydroxy-2,3,4,5-tetrahydro-1H-3-benzazepine-7-carboxamide]
< 50	O=C(NO)c1ccc2c(c1)CCN(C(=O)Nc1ccc3c(c1)CCO3)C2 [Compound 89, N^2-(2,3-dihydro-1-benzofuran-5-yl)-N^6-hydroxy-3,4-dihydroisoquinoline-2,6(1H)-dicarboxamide]
< 50	O=C(NO)c1ccc2c(c1)CCN(C(=O)NCCc1ccccc1)C2 [Compound 91, N^6-hydroxy-N^2-(2-phenylethyl)-3,4-dihydroisoquinoline-2,6(1H)-dicarboxamide]
< 50	O=C(NO)c1ccc2c(c1)CCN(C(=O)Nc1ccc(-c3ccccc3)s1)C2 [Compound 95, N^6-hydroxy-N^2-(5-phenyl-2-thienyl)-3,4-dihydroisoquinoline-2,6(1H)-dicarboxamide]
< 50	CC(C)(C)c1ccccc1NC(=O)N1CCc2cc(C(=O)NO)ccc2C1 [Compound 96, N^2-(2-tert-butylphenyl)-N^6-hydroxy-3,4-dihydroisoquinoline-2,6(1H)-dicarboxamide]

Continued, molecule first:

Structure (SMILES)	IC50 [nM]
O=C(NO)c1ccc2c(c1)CCN(Cc1nc(-c3ccc(Cl)cc3)no1)C2 [Compound 71, 2-{[3-(4-chlorophenyl)-1,2,4-oxadiazol-5-yl]methyl}-N-hydroxy-1,2,3,4-tetrahydroisoquinoline-6-carboxamide]	50 to 100
O=C(NO)c1ccc2c(c1)CCN(c1nc(-c3ccc4c(c3)OCCO4)cs1)C2 [Compound 75, 2-[4-(2,3-dihydro-1,4-benzodioxin-6-yl)-1,3-thiazol-2-yl]-N-hydroxy-1,2,3,4-tetrahydroisoquinoline-6-carboxamide]	< 50
Cc1c(-c2csc(N3CCc4cc(C(=O)NO)ccc4C3)n2)sc2ccccc12 [Compound 76, N-hydroxy-2-[4-(3-methyl-1-benzothien-2-yl)-1,3-thiazol-2-yl]-1,2,3,4-tetrahydroisoquinoline-6-carboxamide]	50 to 100
O=C(NO)c1ccc2c(c1)CCN(c1nc(-c3cccc(Cl)c3)cs1)C2 [Compound 77, 2-[4-(3-chlorophenyl)-1,3-thiazol-2-yl]-N-hydroxy-1,2,3,4-tetrahydroisoquinoline-6-carboxamide]	< 50
Cn1cccc1C(=O)N1Cc2ccc(C(=O)NO)cc2C1 [Compound 78, N-hydroxy-2-[(1-methyl-1H-pyrrol-2-yl)carbonyl]isoindoline-5-carboxamide]	< 50
COc1cc(Cl)ccc1C(=O)N1Cc2ccc(C(=O)NO)cc2C1 [Compound 79, 2-(4-chloro-2-methoxybenzoyl)-N-hydroxyisoindoline-5-carboxamide]	< 50
CC(C)(C(=O)N1Cc2ccc(C(=O)NO)cc2C1)c1ccc(Cl)cc1 [Compound 80, 2-[2-(4-chlorophenyl)-2-methylpropanoyl]-N-hydroxyisoindoline-5-carboxamide]	< 50
CC(C)(C)C(=O)N1Cc2ccc(C(=O)NO)cc2C1 [Compound 81, 2-(2,2-dimethylpropanoyl)-N-hydroxyisoindoline-5-carboxamide]	50 to 100
CC(C)(C)C(=O)N1CCCc2cc(C(=O)NO)ccc2C1 [Compound 82, 2-(2,2-dimethylpropanoyl)-N-hydroxy-2,3,4,5-tetrahydro-1H-2-benzazepine-7-carboxamide]	100 to 500
O=C(NO)c1ccc2c(c1)CCCN(C(=O)c1ccc(C(F)(F)F)cc1)C2 [Compound 84, N-hydroxy-2-[4-(trifluoromethyl)benzoyl]-2,3,4,5-tetrahydro-1H-2-benzazepine-7-carboxamide]	> 500
CC(C)(C)C(=O)N1CCc2ccc(C(=O)NO)cc2CC1 [Compound 85, 3-(2,2-dimethylpropanoyl)-N-hydroxy-2,3,4,5-tetrahydro-1H-3-benzazepine-7-carboxamide]	100 to 500
O=C(NO)c1ccc2c(c1)CCN(C(=O)c1ccc(C(F)(F)F)cc1)CC2 [Compound 87, N-hydroxy-3-[4-(trifluoromethyl)benzoyl]-2,3,4,5-tetrahydro-1H-3-benzazepine-7-carboxamide]	100 to 500
O=C(NO)c1ccc2c(c1)CCN(C(=O)Nc1ccc3c(c1)OCO3)C2 [Compound 90, N^2-1,3-benzodioxol-5-yl-N^6-hydroxy-3,4-dihydroisoquinoline-2,6(1H)-dicarboxamide]	< 50
O=C(NO)c1ccc2c(c1)CCN(C(=O)Nc1ccc(OC(F)(F)F)cc1)C2 [Compound 92, N^6-hydroxy-N^2-[4-(trifluoromethoxy)phenyl]-3,4-dihydroisoquinoline-2,6(1H)-dicarboxamide]	< 50
CCC(C)NC(=O)N1CCc2cc(C(=O)NO)ccc2C1 (stereo not drawn) [Compound 93, N^2-(sec-butyl)-N^6-hydroxy-3,4-dihydroisoquinoline-2,6(1H)-dicarboxamide]	< 50
CCc1cccc(C)c1NC(=O)N1CCc2cc(C(=O)NO)ccc2C1 [Compound 94, N^2-(2-ethyl-6-methylphenyl)-N^6-hydroxy-3,4-dihydroisoquinoline-2,6(1H)-dicarboxamide]	< 50
CCCNC(=O)N1CCc2cc(C(=O)NO)ccc2C1 [Compound 97, N^6-hydroxy-N^2-propyl-3,4-dihydroisoquinoline-2,6(1H)-dicarboxamide]	50 to 100
O=C(NO)c1ccc2c(c1)CCN(C(=O)Nc1cccc(C(F)(F)F)c1)C2 [Compound 98, N^6-hydroxy-N^2-[3-(trifluoromethyl)phenyl]-3,4-dihydroisoquinoline-2,6(1H)-dicarboxamide]	< 50
